# Laboratory results as given in article PMC8728441, “Biosynthesis of the redox cofactor mycofactocin is controlled by the transcriptional regulator MftR and induced by long-chain acyl-CoA species” (The Journal of Biological Chemistry, 2021).
# How the values were obtained:
# [1] = target: MftR D16R; assay: ITC binding of oleoyl-CoA to MftR variant; set-up: species or system Mycobacterium smegmatis mc^2155; conditions: ND = not detected
# From the text: (§1) Next, we examined which amino acid residues contribute to the interaction between MftR and oleoyl-CoA. The crystal structure of Msmeg MftR is currently unavailable; however, an unpublished structure of Rhodococcus jostii RHA1 MftR has been deposited in the Protein Data Bank (PDB) (PDB ID: 2RAE, 54% identical, Fig. S3). Using this structure, we employed SwissDock to model oleoyl-CoA bound to MftR (Fig. 5) ([41], [42]). From the docked structure, we identified eight conserved residues on MftR that were expected to create the acyl-binding pocket or bind CoA through electrostatic interactions. Following single amino acid replacements of the residues, we measured the Kd values of the mutant proteins to oleoyl-CoA using ITC. For the putative acyl-binding pocket residues Phe65, Phe96, and Ile114, mutations to alanine led to no or modest change to the Kd for oleoyl-CoA (Table 1). […] Conversely, when His68 was mutated to alanine, binding of oleoyl-CoA by the protein was undetectable. To validate this observation, competitive EMSAs were carried out using the H68A mutant. […] Thus, it is highly likely that His68 is an important residue for oleoyl-CoA binding. To evaluate residues that were expected to interact with CoA, Gln15, Asp16, Ser67, and Asp66 were targeted. Of these, mutants of Asp16 and Ser67 had the greatest effect (Table 1). […] This latter observation was validated using competitive EMSAs (Fig. S4B). […] Taken together, it is likely that Ser67 and Asp16 participate in oleoyl-CoA binding, likely through electrostatic interactions.
# (§2) Mutant strand synthesis reactions were performed according to the Agilent QuikChange site-directed mutagenesis protocol. The mftR_pET28a plasmid was used as a template for site-directed mutagenesis studies. Sequence-verified plasmids were transformed into E. coli BL21(DE3) pLysS cells for protein production and purified using the same protocol as wildtype MftR.
# (§3) ITC was performed using TA Nano ITC. MftR was loaded in the sample cell at the concentration of 16 and 250 μM acyl-CoAs (C12–C18) loaded in the syringe. To minimize the effect of buffer mismatch, the stock concentration of acyl-CoAs was prepared using ITC buffer (50 mM Hepes, 50 mM NaCl, and pH 7.5), and the pH was adjusted to within 0.05 units. In addition, MftR was buffer exchanged into ITC buffer using a PD-10 column (GE Life Sciences). The volume of the titrant added at each injection into the sample cell was 2.22 μl. The time interval between the successive injections was 180 s. The temperature of the cell was kept at 25 °C. The data obtained were fit by independent one-site model using NanoAnalyze Data Analysis, version 3.8.0, that was provided with the instrument.
# [2] = target: T1, MftR D16W (Mycolicibacterium smegmatis, UniProt A0QSB5, D16W); assay: ITC binding of oleoyl-CoA to MftR variant; set-up: species or system Mycobacterium smegmatis mc^2155
# T1 sequence (A0QSB5 1-200 D16W): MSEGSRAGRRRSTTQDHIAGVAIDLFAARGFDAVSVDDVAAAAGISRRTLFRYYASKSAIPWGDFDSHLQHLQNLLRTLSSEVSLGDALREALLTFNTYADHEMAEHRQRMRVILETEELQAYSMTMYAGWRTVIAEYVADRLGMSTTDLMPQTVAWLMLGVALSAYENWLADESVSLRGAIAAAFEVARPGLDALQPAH
# From the text: as §1, §2, §3
# [3] = target: T2, MftR D66A (Mycolicibacterium smegmatis, UniProt A0QSB5, D66A); assay: ITC binding of oleoyl-CoA to MftR variant; set-up: species or system Mycobacterium smegmatis mc^2155
# T2 sequence (A0QSB5 1-200 D66A): T1 sequence (A0QSB5 1-200 D16W)
# From the text: as §1, §2, §3
# [4] = target: T3, MftR F65A (Mycolicibacterium smegmatis, UniProt A0QSB5, F65A); assay: ITC binding of oleoyl-CoA to MftR variant; set-up: species or system Mycobacterium smegmatis mc^2155
# T3 sequence (A0QSB5 1-200 F65A): T1 sequence (A0QSB5 1-200 D16W)
# From the text: as §1, §2, §3
# [5] = target: T4, MftR F96A (Mycolicibacterium smegmatis, UniProt A0QSB5, F96A); assay: ITC binding of oleoyl-CoA to MftR variant; set-up: species or system Mycobacterium smegmatis mc^2155
# T4 sequence (A0QSB5 1-200 F96A): T1 sequence (A0QSB5 1-200 D16W)
# From the text: as §1, §2, §3
# [6] = target: MftR H68A; assay: ITC binding of oleoyl-CoA to MftR variant; set-up: species or system Mycobacterium smegmatis mc^2155; conditions: ND = not detected
# From the text: as §1, §2, §3
# [7] = target: T5, MftR I114A (Mycolicibacterium smegmatis, UniProt A0QSB5, I114A); assay: ITC binding of oleoyl-CoA to MftR variant; set-up: species or system Mycobacterium smegmatis mc^2155
# T5 sequence (A0QSB5 1-200 I114A): T1 sequence (A0QSB5 1-200 D16W)
# From the text: as §1, §2, §3
# [8] = target: T6, MftR S67A (Mycolicibacterium smegmatis, UniProt A0QSB5, S67A); assay: ITC binding of oleoyl-CoA to MftR variant; set-up: species or system Mycobacterium smegmatis mc^2155
# T6 sequence (A0QSB5 1-200 S67A): T1 sequence (A0QSB5 1-200 D16W)
# From the text: as §1, §2, §3
# [9] = target: MftR S67W; assay: ITC binding of oleoyl-CoA to MftR variant; set-up: species or system Mycobacterium smegmatis mc^2155; conditions: S67W mutation vs WT, ITC
# From the text: as §1, §2, §3
# [10] = tested on: MftR–Omft complex; assay: Competitive EMSA screen for effectors of MftR; assay type: binding, Mycobacterium smegmatis mc^2155; conditions: 6-FAM Omft 0.5 μM, MftR 5 μM, effectors 100 μM
# Procedure: Next, we assessed which metabolites activate MftR and thus could induce MFT production. To do so, we carried out competitive EMSAs where FAM-labeled Omft and MftR were incubated in the presence of potential effectors. We initially chose our effectors based on cholesterol catabolism, a process that putatively includes MFT biosynthetic genes ([38]). […] Knowing that TFRs have a propensity to be activated by fatty acyl-CoAs ([20]), we expanded our effector screening to include short-chain, medium-chain, and long-chain acyl-CoAs.
# Figure 4 Effectors of MftR.A, an EMSA used to screen effectors of MftR. The 6-FAM–labeled Omft region (0.5 μM) was incubated with the MftR (5 μM) in the absence or the presence of effectors (100 μM). Protein–DNA complexes were separated by electrophoresis on 5% polyacrylamide gel. […] B, a representative isothermal titration calorimetry thermogram for the binding of the oleoyl-CoA to MftR regulator (blue) and the control of oleoyl-CoA into buffer (red). Each peak corresponds to the injection of 2.22 μl of 250 μM oleoyl-CoA into the cell containing 16 μM MftR or buffer. The integrated thermogram (blue dots) was fitted to a single-site binding model (black line) to determine the Kd. […] C, a bar graph depicting the ITC measured Kds for various acyl-CoAs. Bars represent the mean of three independent experiments, and the error bars represent the standard deviation of the experiments. 6-FAM, 6-carboxyfluorescein; ITC, isothermal titration calorimetry; Omft, mft operator.
# His-tagged MftR was used to assess the protein binding to Pmft–MftA promoter fragment. DNA was mixed with increasing concentrations of the MftR protein in the reaction buffer (50 mM Hepes, 50 mM NaCl 0.1 mM EDTA, and pH 7.5) and incubated at room temperature for 10 min. The reactions were resolved by electrophoresis on a 5% (v/v) nondenaturing polyacrylamide gel in 1× Tris/borate/EDTA buffer at 200 V for 20 min on ice. Prior to the analysis, the gel was prerun for 30 min at 150 V on ice. Results were visualized by GelRed and recorded using Azure Biosystems 600 imaging system.
smiles,measurement,setting,value
CCCCCCCC/C=C\CCCCCCCC(=O)SCCNC(=O)CCNC(=O)[C@H](O)C(C)(C)COP(=O)(O)OP(=O)(O)OC[C@H]1O[C@@H](n2cnc3c(N)ncnc32)[C@H](O)[C@@H]1OP(=O)(O)O [oleoyl-CoA],Kd,[1],no longer detectable
same,Kd,[2],4800 ± 200 nM
same,Kd,[3],1600 ± 100 nM
same,Kd,[4],1900 ± 100 nM
same,Kd,[5],1400 ± 100 nM
same,Kd,[6],undetectable
same,Kd,[7],2400 ± 100 nM
same,Kd,[8],5400 ± 200 nM
same,increase in the Kd value for oleoyl-CoA,[9],eightfold increase
same,disruption of the MftR–Omft complex (DNA release),[10],disrupted the MftR–Omft complex
